Drawing on ChEMBL document CHEMBL3507680, “University of Dundee, Gates Library screen for HepG2 cell viability”, this text covers cytotoxicity for 90 compounds.

The data set in a line: Human HepG2 cell viability assay in 384 well format. In kind it is toxicity, cell-based. The arrangement: dose 125 nL, time 70.5 hour; concentration not given beside the values. Conditions: HepG2 cells, read-out: Inhibition.
For the compound `Cc1nc(COC[C@@]23CCC[C@@H]2CN(Cc2cnn(C)c2)C3)cs1`, the cytotoxicity at 70.5 h is -5%.

For `Cc1csc([C@H]2C[C@@H]3CCN(Cc4cc(C)on4)C[C@H]3O2)n1`, the cytotoxicity at 70.5 h was -5.27%.

`COCC1c2nnn(C)c2CCN1C(=O)CCc1cccc(OC)c1` (stereo not given): the cytotoxicity at 70.5 h was -3.47%.

Take `CCN1CCN(C)C2(CCN(C(=O)CC(F)(F)F)CC2)C1=O`: the cytotoxicity at 70.5 h was determined as 0.29%.

In the case of `CN1CCN(C)C2(CCN(C(=O)CC(F)(F)F)CC2)C1=O`, the cytotoxicity at 70.5 h came out at 0.213%.

As to `CCN1CC2(CC1=O)CN(C(=O)NC(C)C)CCN(C(=O)NC(C)C)C2`, the cytotoxicity at 70.5 h is -4.47%.

In the case of `c1cncc(N2CCCn3nnc(CN4CCOCC4)c3C2)c1`, the cytotoxicity at 70.5 h is -5%.

With `CCn1nc(C)cc1C(=O)N1C[C@@H]2C[C@@H](c3nc(C)cs3)O[C@@H]2C1`, the cytotoxicity at 70.5 h was -2.46%.

With `CO[C@H]1CCN(C(=O)Cc2ccc(F)cc2)[C@H]1Cc1ccncc1`, the cytotoxicity at 70.5 h was -8.07%.

As to `COC[C@@]12CCC[C@@H]1CN(C(=O)COC1CCCC1)C2`, the cytotoxicity at 70.5 h was -6.5%.

Turning to `COC[C@@]12CCC[C@@H]1CN(C(=O)N1CCCC1)C2`, the cytotoxicity at 70.5 h was -6.53%.

As for `CCN1C[C@H]2CCN(C(=O)Cc3cccc(OC)c3)CC[C@H]2S1(=O)=O`, the cytotoxicity at 70.5 h is -8.13%.

Consider `Cn1ccnc1CN1CCC2(COCCN(S(=O)(=O)C3CC3)C2)C1` (stereo not given), for which the cytotoxicity at 70.5 h was -10.6%.

Turning to `CS(=O)(=O)N1CCCC12CCN(Cc1ccoc1)CC2`, the cytotoxicity at 70.5 h was -3.22%.

As for `CC(C)CNC(=O)C1=NOC2(CCN(Cc3ccoc3)C2)C1` (stereo not given), the cytotoxicity at 70.5 h was -0.398%.

For `C[C@H]1CN(C(=O)c2cccnc2)C[C@@]12CCN(CCN1CCCC1)C2=O`, the cytotoxicity at 70.5 h was -6.14%.

As to `Cc1cccc(CN2CC[C@H]3OCC[C@@]3(C(=O)N3CCOCC3)C2)n1`, the cytotoxicity at 70.5 h was -4.06%.

Consider `CN(C)C(=O)[C@H]1C[C@@H]2CN(S(=O)(=O)Cc3ccccc3)C[C@H]1O2`, for which the cytotoxicity at 70.5 h is -17.1%.

In the case of `Cn1cc(-c2cnc(N3CCOCC3)nc2)cc1C(=O)N1CCOCC1`, the cytotoxicity at 70.5 h was -22%.

`COCCC(=O)N1CC2(CCN(Cc3ccoc3)C2)C1`: the cytotoxicity at 70.5 h came out at 33.7%.

As for `COCC1CN(C(=O)c2ccoc2C)Cc2nccn2C1` (stereo not given), the cytotoxicity at 70.5 h was determined as 22.7%.

For the compound `COCC1CN(C(=O)c2cccn2C)Cc2nccn2C1` (stereo not given), the cytotoxicity at 70.5 h was -18.2%.

For the compound `Cc1ccc(CN2CCCC3(CCN(S(=O)(=O)N(C)C)C3)C2)o1` (stereo not given), the cytotoxicity at 70.5 h was -9.63%.

Regarding `CC(C)Nc1nc(N2CCOCC2)nc2c1CN(Cc1ccoc1)CC2`, the cytotoxicity at 70.5 h is -12.3%.

For `CC(=O)NCC(=O)N1CCN(CC2CC2)c2ncccc2C1`, the cytotoxicity at 70.5 h is -9.1%.

Take `c1ccc(-c2nnn3c2COC(CNCC2CCOCC2)C3)cc1` (stereo not given): the cytotoxicity at 70.5 h is -5.85%.

Turning to `Cn1cccc1C(=O)N1CCc2ncnc(C3CC3)c2CC1`, the cytotoxicity at 70.5 h is -0.695%.

`O=C1NC2(CCNCC2)CC1c1cccnc1` (stereo not given): the cytotoxicity at 70.5 h was -7.17%.

As to `CCO[C@@H]1CCN(C(=O)c2ccc[nH]2)[C@@H]1Cc1cnn(C)c1`, the cytotoxicity at 70.5 h is -2.67%.

On to `CCO[C@@H]1CCN(C(=O)c2cscn2)[C@@H]1Cc1cnn(C)c1`, for which the cytotoxicity at 70.5 h was -10.2%.

In the case of `CO[C@H]1CCN(C(=O)Cc2ccccn2)[C@H]1Cc1ccncc1`, the cytotoxicity at 70.5 h is -7.06%.

Turning to `C[C@@H]1CN(C(=O)c2ccsc2)C[C@]12CCN(c1ccsc1)C2=O`, the cytotoxicity at 70.5 h is 1.23%.

Turning to `O=C(c1ccc2c(c1)OCO2)N1CCC[C@]2(C[C@H](OCC3CC3)CO2)C1`, the cytotoxicity at 70.5 h was -9.71%.

Consider `O=C(c1cccs1)N1CCC2(C1)c1ccccc1S(=O)(=O)N2CC1CC1` (stereo not given), for which the cytotoxicity at 70.5 h is -3.76%.

`COCCC(=O)N1CC[C@@H]2O[C@@H](C)C[C@H]2C1`: the cytotoxicity at 70.5 h was -15.5%.

As to `O=C(c1cscn1)N1CCC[C@]2(C[C@H](OCC3CC3)CO2)C1`, the cytotoxicity at 70.5 h is -5.48%.

Take `COc1ccccc1CN1CCC2(CC1)CC(Oc1ccccn1)CO2` (stereo not given): the cytotoxicity at 70.5 h amounted to 47.3%.

As to `Cc1nc(NCC2CC2)nc2c1COCC21CCN(C)C1` (stereo not given), the cytotoxicity at 70.5 h is -3.52%.

Regarding `O=C(C1CCOC1)N1C[C@H]2CN(Cc3nccs3)C[C@H]2C1` (stereo not given in full), the cytotoxicity at 70.5 h is -2.75%.

Turning to `Cc1cc(CN2CC[C@H]3C[C@H](c4nccs4)O[C@@H]3C2)no1`, the cytotoxicity at 70.5 h is -15.6%.

Consider `O=C(c1ccc[nH]1)N1C[C@H]2CN(Cc3cccc(F)c3)C(=O)[C@H]2C1`, for which the cytotoxicity at 70.5 h was -0.293%.

With `Cc1ncoc1C(=O)N1C[C@H]2CCC[C@@]2(COCC2CCOCC2)C1`, the cytotoxicity at 70.5 h is -12.7%.

For `Cc1noc(C)c1CN1CC[C@H]2C[C@@H](c3ccncn3)O[C@@H]2C1`, the cytotoxicity at 70.5 h was -10.7%.

Turning to `Cn1cc(CN2CCCC3(CCN(Cc4cccnc4)C3=O)C2)cn1` (stereo not given), the cytotoxicity at 70.5 h is -13.4%.

Turning to `CNC(=O)[C@@]12CCO[C@@H]1CCN(S(=O)(=O)c1cccc(C)c1)C2`, the cytotoxicity at 70.5 h was -5.31%.

Consider `CC(=O)N1CCC2(CCN(C(=O)c3ccc(C)c(C(F)(F)F)c3)CC2)C1`, for which the cytotoxicity at 70.5 h came out at 37.6%.

Regarding `O=C(c1cccnc1)N1CCC2(CC1)CNc1c(F)cccc12`, the cytotoxicity at 70.5 h was -1.96%.

Consider `CCN1CCC2(C=C(C(=O)N(C)C)c3ccccc32)CC1`, for which the cytotoxicity at 70.5 h is 0.372%.

Consider `Fc1cnc(N2CCCC3(CN(Cc4cccs4)CCO3)C2)nc1` (stereo not given), for which the cytotoxicity at 70.5 h amounted to 2.35%.

With `CNC(=O)[C@H]1C[C@@H]2CN(Cc3ccc(OC)cc3)C[C@H]1O2`, the cytotoxicity at 70.5 h is -4.08%.

For `CO[C@@H]1CCN(C(=O)Cc2ccc(F)cc2)[C@@H]1Cc1cccnc1`, the cytotoxicity at 70.5 h was -3.63%.

In the case of `Cn1ccnc1CN1CCC2(CC1)COCCN(S(C)(=O)=O)C2`, the cytotoxicity at 70.5 h was -7.67%.

`CNC(=O)[C@H]1C[C@@H]2CN(Cc3ccc(C)cc3)C[C@H]1O2`: the cytotoxicity at 70.5 h was -6.44%.

Turning to `CNC(=O)[C@H]1C[C@@H]2CN(Cc3ccccc3)C[C@H]1O2`, the cytotoxicity at 70.5 h was -5.88%.

Turning to `Cc1ccc(CN2CCc3onc(C(=O)N4CCCC4)c3C2)o1`, the cytotoxicity at 70.5 h was -6.06%.

On to `COCC1COCCC12CCN(Cc1cccs1)CC2` (stereo not given), for which the cytotoxicity at 70.5 h is -7.86%.

In the case of `CN(C)C(=O)CN1CCC2(CCCN(Cc3cccn3C)C2)C1=O` (stereo not given), the cytotoxicity at 70.5 h is 25.7%.

Regarding `O=C(NC1CC1)[C@H]1C[C@@H]2CCN(CCc3ccccc3)C[C@H]2O1`, the cytotoxicity at 70.5 h was -11.8%.

For the compound `O=C(NC[C@]12COC[C@H]1CN(C1CCOCC1)C2)c1ccco1`, the cytotoxicity at 70.5 h is -0.469%.

As for `CN(Cc1cn2c(n1)CN(C(=O)CC1CC1)CC2)Cc1ccco1`, the cytotoxicity at 70.5 h is -4.98%.

In the case of `Cn1nnc2c1CCN(CC1CC1)C2COCc1ccccc1` (stereo not given), the cytotoxicity at 70.5 h was -6.64%.

For `O=C(c1cccc(Cl)c1)N1CCCn2c(CN3CCCCC3)nnc2C1`, the cytotoxicity at 70.5 h was -1.86%.

With `c1ncn(Cc2cnc3n2CCN(Cc2ccsc2)CC3)n1`, the cytotoxicity at 70.5 h was 1.42%.

For `O=C1CCC2(CCN(Cc3nccs3)CC2)N1Cc1ccccc1`, the cytotoxicity at 70.5 h is -7.75%.

For the compound `COc1ccc(CN2CCC3(CC(=O)N(c4cncnc4)C3)C2)cc1` (stereo not given), the cytotoxicity at 70.5 h was -15.2%.

`O=C(CC1CC1)N1CC[C@H]2[C@@H]1CCC(=O)N2c1cccnc1`: the cytotoxicity at 70.5 h is -16.4%.

With `N#Cc1ccc(C(=O)N2CC[C@H]3[C@@H]2CCC(=O)N3c2cccnc2)cc1`, the cytotoxicity at 70.5 h was -6.84%.

Consider `CN(C)c1ncnc2c1CCN(CC1CCCC1)CC2`, for which the cytotoxicity at 70.5 h was -13.2%.

For the compound `O=C(Cc1ccsc1)N1C[C@@H]2CN(Cc3ccoc3)CCO[C@@H]2C1`, the cytotoxicity at 70.5 h was -11.4%.

Regarding `CCS(=O)(=O)NC[C@]12COC[C@H]1CN(Cc1cccc(OC)c1)C2`, the cytotoxicity at 70.5 h is -11.2%.

Consider `Cc1ccc(CN2CCc3onc(C(=O)Nc4cccnc4)c3C2)o1`, for which the cytotoxicity at 70.5 h is -7.97%.

In the case of `Fc1cnc(N2CCC3(CC2)CN(Cc2cccs2)CCO3)nc1`, the cytotoxicity at 70.5 h was -6.3%.

With `O=C(C[C@@H]1COC[C@H]2CN(C3CCCC3)C[C@@H]12)NCc1cccnc1`, the cytotoxicity at 70.5 h is -8.82%.

As to `O=C(C[C@@H]1COC[C@H]2CN(CC3CC3)C[C@@H]12)NCc1cccnc1`, the cytotoxicity at 70.5 h was -11.6%.

As to `Cc1cccc(CN2CC[C@H]3OCC[C@@]3(C(=O)N3CCCO3)C2)n1`, the cytotoxicity at 70.5 h is -2.84%.

For `Cc1ccc(N2C[C@H](C)[C@]3(CCN(c4cccnc4)C3=O)C2)nn1`, the cytotoxicity at 70.5 h was -3.28%.

Turning to `O=C1[C@@H]2CCN(Cc3ccoc3)C[C@@H]2OCCN1Cc1cccnc1`, the cytotoxicity at 70.5 h is -20.5%.

Take `c1cncc(OC[C@@H]2CC[C@H]3[C@H](CCN3Cc3cccs3)O2)c1`: the cytotoxicity at 70.5 h is -4.43%.

For the compound `Cn1cc(CN2C[C@@H]3COC[C@@H](C(=O)N4CCCCO4)[C@@H]3C2)cn1`, the cytotoxicity at 70.5 h was -1.2%.

For `c1cnc(N2CCOC3(CCN(CC4CCCCC4)CC3)C2)nc1`, the cytotoxicity at 70.5 h is -4.82%.

Turning to `Cc1noc(C)c1CN1CCN(CC2CC2)c2ncccc2C1`, the cytotoxicity at 70.5 h is -5.96%.

With `CN(Cc1ccco1)[C@@H]1CN(Cc2ccco2)[C@@H]2CCCO[C@H]12`, the cytotoxicity at 70.5 h is -9.38%.

With `O=C(Cc1ccccn1)N1CCC2(CC1)CC(Oc1ccccn1)CO2` (stereo not given), the cytotoxicity at 70.5 h was -9.02%.

Consider `COc1ccc(CN2C[C@@H]3OCCN(CC4CCCO4)[C@@H]3C2)cc1` (stereo not given in full), for which the cytotoxicity at 70.5 h is -19.1%.

`c1cnn(C[C@@H]2C[C@@H]3CN(CC4CC4)CC[C@@H]3N2c2nccs2)c1`: the cytotoxicity at 70.5 h was 0.124%.

As for `CN1CCN(Cc2cn3c(n2)CN(C2CCOCC2)CC3)CC1`, the cytotoxicity at 70.5 h is -6.56%.

With `CO[C@H]1CCN(Cc2c(C)noc2C)[C@@H]2CN(Cc3ccncc3)C[C@H]12`, the cytotoxicity at 70.5 h was -5.37%.

In the case of `O=C(Nc1cccnc1)[C@H]1CN(Cc2nccs2)C[C@H]2OCC[C@@H]12`, the cytotoxicity at 70.5 h came to 35.5%.

With `CN(Cc1ccccn1)C1CC2(CCN(Cc3cccnc3)CC2)C1`, the cytotoxicity at 70.5 h amounted to 5.08%.

Take `Cc1noc(C)c1CN1CCN(Cc2ccncc2)c2ncccc2C1`: the cytotoxicity at 70.5 h is -7.22%.
